From ChEMBL document CHEMBL1141822, “Tenellic acids A-D: new bioactive diphenyl ether derivatives from the aquatic fungus Dendrospora tenella” (1999)
Active and inactive are the calls of the source. The rule behind the calls is not given here.

Assays:
Bacillus subtilis = experiment: Antimicrobial activity against Bacillus subtilis ATCC 6051 at 200 ug/disk; type: functional; settings: read-out: IZ
Candida albicans = experiment: Antimicrobial activity against Candida albicans ATCC 14053 at 200 ug/disk; type: functional, organism-based
Staphylococcus aureus = experiment: Antimicrobial activity against Staphylococcus aureus ATCC 29213 at 200 ug/disk; type: functional; settings: read-out: IZ

| SMILES | zone of inhibition at 200 µg/disc (Bacillus subtilis) [mm] | Activity (Candida albicans) | zone of inhibition at 200 µg/disc (Staphylococcus aureus) [mm] |
| --- | --- | --- | --- |
| COc1c(C(CC(C)C)OC)ccc(Oc2c(O)cc(C)cc2C=O)c1C(=O)O (stereo not given) [TENELLIC ACID A] | 11 | inactive |  |
| COc1c(C(O)CC(C)C)ccc(Oc2c(O)cc(C)cc2C=O)c1C(=O)O (stereo not given) [TENELLIC ACID B] | 9 | inactive |  |
| COc1c(C(CC(C)C)OC(C)=O)ccc(Oc2c(O)cc(C)cc2C=O)c1C(=O)O (stereo not given) [TENELLIC ACID C] | 12 | inactive | 14 |
| COc1c(C(CC(C)C)OCC(C)C)ccc(Oc2c(O)cc(C)cc2C=O)c1C(=O)O (stereo not given) [TENELLIC ACID D] | 29 | inactive | 25 |
